Counter-ions that a name gives are not always drawn.
What follows are compounds tested on NrF2 (Nuclear factor (erythroid-derived 2)-like 2) (assay: NrF2 activation in a whole cell nuclear translocation assay). Conditions: read-out: NrF2 translocation assay EC50.
Format: cell-based
Description: NrF2 Activation in a Whole Cell Nuclear Translocation Assay Compounds were tested in a NrF2 (Nuclear factor (erythroid-derived 2)-like 2) translocation assay by adapting the methods set forth in U.S. Pat. No. 8,101,373, the disclosure of which is incorporated herein by reference.
In the case of `COC(=O)/C=C/n1nn[nH]c1=O` [Compound 1, methyl (E)-3-(5-oxo-4,5-dihydro-1H-tetrazol-1-yl)acrylate], the EC50 is reported as 61 µM. `COC(=O)/C=C/n1nnn(C(C)C)c1=O` [Compound 6, methyl (E)-3-(4-isopropyl-5-oxo-4,5-dihydro-1H-tetrazol-1-yl)acrylate] showed an EC50 of 7.8 µM. For `COC(=O)/C=C/n1nnn(C(=O)N(C)C)c1=O` [Compound 10, Methyl (E)-3-(4-(dimethylcarbamoyl)-5-oxo-4,5-dihydro-1H-tetrazol-1-yl)acrylate], the EC50 was 6.1 µM. `COC(=O)/C=C/n1nnn(C2CCCC2)c1=O` [Compound 11, methyl (E)-3-(4-cyclopentyl-5-oxo-4,5-dihydro-1H-tetrazol-1-yl)acrylate] was tested, and the EC50 was 5.4 µM. For `COC(=O)/C=C/n1nnn(C2CCOCC2)c1=O` [Compound 12, methyl (E)-3-(5-oxo-4-(tetrahydro-2H-pyran-4-yl)-4,5-dihydro-1H-tetrazol-1-yl)acrylate], the EC50 was 10.4 µM. Work on `COC(=O)/C=C/n1nnn(CC(=O)OC)c1=O` [Compound 14, methyl (E)-3-(4-(2-methoxy-2-oxoethyl)-5-oxo-4,5-dihydro-1H-tetrazol-1-yl)acrylate] yielded an EC50 of 6.7 µM. In the case of `COC(=O)/C=C/n1nnn(-c2ccccc2)c1=O` [Compound 16, methyl (E)-3-(5-oxo-4-phenyl-4,5-dihydro-1H-tetrazol-1-yl)acrylate], the EC50 is reported as 1 µM. In the case of `COC(=O)/C=C/n1nnn(/C=C/C(=O)OC)c1=O` [Compound 20, dimethyl 3,3′-(5-oxo-1H-tetrazole-1,4(5H)-diyl)(2E,2′E)-diacrylate], the EC50 is reported as 0.7 µM. `COC(=O)/C=C/n1nnn(C2CC2)c1=O` [Compound 21, methyl (E)-3-(4-cyclopropyl-5-oxo-4,5-dihydro-1H-tetrazol-1-yl)acrylate] was tested, and the EC50 was 7.2 µM.

Same assay, conditions: reference fumarates, read-out: NrF2 activation EC50
In the case of `COC(=O)/C=C/C(=O)O` [Monomethyl fumarate, monomethyl fumarate, reference compound], the EC50 is reported as ~127 µM. Compound `COC(=O)/C=C/C(=O)OC` [dimethyl fumarate, reference compound] has an EC50 of ~7.9 µM.

The compounds below were run on experimental autoimmune encephalomyelitis (EAE) (assay: Autoimmune encephalitis (EAE) in vivo assay in mice). Conditions: dosed at 60 mg/kg beginning on the day of immunization, 60 mg/kg.
Parameters: species or system C57BL/6 mice
With `COC(=O)/C=C/n1nn[nH]c1=O` [Compound 1, methyl (E)-3-(5-oxo-4,5-dihydro-1H-tetrazol-1-yl)acrylate] the “onset of disease paralysis” value was “significantly prevented the onset of disease paralysis”.

Same assay, conditions: dosed at 60 mg/kg beginning on the day of immunization, listed as compound 1, 60 mg/kg
`COC(=O)/C=C/n1nn[nH]c1=O` [Compound 1, methyl (E)-3-(5-oxo-4,5-dihydro-1H-tetrazol-1-yl)acrylate] was tested, and the “onset of disease paralysis” value was “significantly prevents the onset of disease paralysis”.

— patent publication US11129819B2, “Fumarate analogs and uses thereof” (Rigel Pharmaceuticals, Inc., priority 2014, dated 2021)
